In patent US6399782B1, “Benzimidazole inhibitors of fructose 1,6-bisphosphatase” (Metabasis Therapeutics, Inc., priority 1997, dated 2002):

Tests used:
[1] = Analysis of drug levels and liver accumulation in rats; assay type: in vivo; details: rat, 20 mg/kg intraperitoneally, one hour post injection
Method: Sprague-Dawley rats (250-300 g) were fasted for […] and then dosed intraperitoneally either with saline (n=3) or 20 mgs/kg of FBPase inhibitor (n=4). The vehicle used for drug administration was 10 mM bicarbonate. One hour post injection rats were anesthetized with halothane and a liver biopsy (approx. 1 g) was taken as well as a blood sample (2 ml) from the posterior vena cava. A heparin flushed syringe and needle was used for blood collection. The liver sample was immediately homogenized in ice-cold 10% perchloric acid (3 mL), centrifuged, and the supernatant neutralized with ⅓rd volume of 3 M KOH/3 M KH2CO3. Following centrifugation and filtration, 50 μl of the neutralized extract was ana lyzed for FBPase inhibitor content by HPLC. A reverse phase YMC ODS AQ column ([…]) was used and eluted with a gradient from 10 mM sodium phosphate pH 5.5 to 75% acetonitrile. Absorbance was monitored at 310 nm. […] The methanolic extract was clarified by centrifugation and filtration and then analyzed by HPLC as described above.

[2] = tested on: streptozotocin-treated Sprague-Dawley rats; test: Blood glucose lowering in the streptozotocin-treated rat; assay type: in vivo
Method: Diabetes was induced in male Sprague-Dawley rats (250-300 g) by intraperitoneal injection of 55 mg/kg streptozotocin (Sigma Chemical Co.). Six days later, 24 animals were selected with fed blood glucose values (8 am) between 350 and 600 mg/dL and divided into two statistically equivalent groups. Blood glucose was measured in blood obtained from a tall vein nick by means of a HemoCue Inc. (Mission Viejo, Calif.) glucose analyzer. […] Food was removed from the animals. Blood glucose was measured in each animal four hours after dosing, and a second dose of drug or saline was then administered. Four hours later, a final blood glucose measurement was made.

- liver level [1]: 90 nmol/g
- plasma level [1]: 85 µM
SMILES: CCc1cc(F)c(N)c2nc(-c3ccc(P(=O)(O)O)o3)n(CC(C)C)c12 [Compound 12.64]
- Blood glucose, mg/dl T = 8h ([2]; 100 mg/kg intraperitoneally at 0 and 4 h, food removed, 8 hours after the initial dose): 271 ± 29 mg/dL
- Blood glucose, mg/dl T = 0h ([2]; before dosing, streptozotocin-treated rats): 488 ± 16 mg/dL
